# From ChEMBL document CHEMBL3603745, “Synthesis of ciprofloxacin dimers for evaluation of bacterial permeability in atypical chemical space” (Bioorg Med Chem Lett, 2015)
# Experiments:
# [1] = Inhibition of Escherichia coli recombinant gyrase A2B2 assessed as reduction of pHOT-1 supercoiling after 90 mins
# Escherichia coli [2] = assay: Antibacterial activity against wild type Escherichia coli ATCC 25922 by broth microdilution method; assay type: functional
# Escherichia coli [3] = assay: Antibacterial activity against wild type Escherichia coli BW5328/pAH69 by broth microdilution method; assay type: functional
# Escherichia coli [4] = assay: Antibacterial activity against tolC-deficient Escherichia coli JW5503-1 by broth microdilution method; assay type: functional
# Escherichia coli [5] = assay: Antibacterial activity against tolC-deficient Escherichia coli NB27005-CDY0039 expressing gyrA S83L […], parC S80I mutant by broth microdilution method; assay type: functional
# Escherichia coli [6] = assay: Antibacterial activity against wild type Escherichia coli MC4100 by broth microdilution method; assay type: functional
# Escherichia coli [7] = assay: Antibacterial activity against Escherichia coli imp-4213 by broth microdilution method; assay type: functional
# Escherichia coli [8] = assay: Antibacterial activity against fluoroquinolone-resistant Escherichia coli CH10 harboring gyrA S83L D87N, parC S80I E84G, AcrA+ by broth microdilution method; assay type: functional
# Staphylococcus aureus [9] = assay: Antibacterial activity against wild type Staphylococcus aureus ATCC 29213 by broth microdilution method; assay type: functional
# Staphylococcus aureus [10] = assay: Antibacterial activity against wild type methicillin-susceptible Staphylococcus aureus ATCC 49951 by broth microdilution method; assay type: functional
# Staphylococcus aureus [11] = assay: Antibacterial activity against fluoroquinolone-resistant Staphylococcus aureus NB01006-AVR005 harboring gyrA S84L, parC S80F, parE E471K by broth microdilution method; assay type: functional
# Pseudomonas aeruginosa [12] = assay: Antibacterial activity against wild type Pseudomonas aeruginosa PAO1 by broth microdilution method; assay type: functional
# Pseudomonas aeruginosa [13] = assay: Antibacterial activity against Pseudomonas aeruginosa K1542 deficient with mexX, mexB by broth microdilution method; assay type: functional
# Pseudomonas aeruginosa [14] = assay: Antibacterial activity against mexX, mexB deficient Pseudomonas aeruginosa NB52023-CDK005 harboring gyrAT83I by broth microdilution method; assay type: functional
# Pseudomonas aeruginosa [15] = assay: Antibacterial activity against mexX, mexB deficient Pseudomonas aeruginosa NB52023-CDK006 harboring gyrAT83I and parC S87L by broth microdilution method; assay type: functional
SMILES,IC50 [1] [nM],MIC (Escherichia coli [2]) [µg/mL],MIC (Escherichia coli [3]) [µg/mL],MIC (Escherichia coli [4]) [µg/mL],MIC (Escherichia coli [5]) [µg/mL],MIC (Escherichia coli [6]) [µg/mL],MIC (Escherichia coli [7]) [µg/mL],MIC (Escherichia coli [8]) [µg/mL],MIC (Staphylococcus aureus [9]) [µg/mL],MIC (Staphylococcus aureus [10]) [µg/mL],MIC (Staphylococcus aureus [11]) [µg/mL],MIC (Pseudomonas aeruginosa [12]) [µg/mL],MIC (Pseudomonas aeruginosa [13]) [µg/mL],MIC (Pseudomonas aeruginosa [14]) [µg/mL],MIC (Pseudomonas aeruginosa [15]) [µg/mL]
C=CCN1CCN(c2cc3c(cc2F)c(=O)c(C(=O)O)cn3C2CC2)CC1,580,≤ 0.03,0.06,≤ 0.03,2,0.06,≤ 0.03,> 32,0.125,0.125,32,1,0.25,4,32
O=CN1CCN(c2cc3c(cc2F)c(=O)c(C(=O)O)cn3C2CC2)CC1,250,0.125,0.125,≤ 0.03,4,0.25,≤ 0.03,> 32,0.25,0.25,32,2,0.25,16,32
O=C(NCCCCC(=O)N1CCN(c2cc3c(cc2F)c(=O)c(C(=O)O)cn3C2CC2)CC1)c1cccc(C(=O)NCCCCC(=O)N2CCN(c3cc4c(cc3F)c(=O)c(C(=O)O)cn4C3CC3)CC2)c1,9970,16,16,0.5,> 32,16,2,> 32,> 32,4,> 32,> 32,> 32,> 32,> 32
C=CCCC(=O)N1CCN(c2cc3c(cc2F)c(=O)c(C(=O)O)cn3C2CC2)CC1,760,0.5,1,≤ 0.03,2,1,≤ 0.03,> 32,0.25,0.25,32,16,2,> 32,> 32
CC(C)(C)OC(=O)NCCCCCC(=O)N1CCN(c2cc3c(cc2F)c(=O)c(C(=O)O)cn3C2CC2)CC1,4350,> 32,> 32,0.06,2,> 32,0.25,> 32,2,2,> 32,> 32,> 32,> 32,> 32
O=C(O)c1cn(C2CC2)c2cc(N3CCN(CCOCCOCCOc4ccc5ccc(=O)oc5c4)CC3)c(F)cc2c1=O,6670,1,1,≤ 0.03,> 32,2,0.125,> 32,2,2,> 32,16,8,> 32,> 32
O=C(O)c1cn(C2CC2)c2cc(N3CCNCC3)c(F)cc2c1=O [CIPROFLOXACIN],460,≤ 0.03,≤ 0.03,≤ 0.03,–,≤ 0.03,≤ 0.03,> 32,0.5,0.25,> 32,–,0.06,–,4
CC[C@H]1OC(=O)[C@H](C)[C@@H](O[C@H]2C[C@@](C)(OC)[C@@H](O)[C@H](C)O2)[C@H](C)[C@@H](O[C@@H]2O[C@H](C)C[C@H](N(C)C)[C@H]2O)[C@](C)(O)C[C@@H](C)C(=O)[C@H](C)[C@@H](O)[C@]1(C)O [ERYTHROMYCIN],–,> 32,32,2,2,> 32,2,> 32,0.25,0.25,0.5,> 32,> 32,> 32,> 32
